# Laboratory results taken from EPA's ToxValDB 9.5 (doi:10.2903/j.efsa.2010.1871).
# Tests used:
# Lepomis macrochirus = details: acute; duration: 96 hours; mortality
# Mus musculus = details: acute; oral; mortality
# Apis mellifera = details: acute; duration: 48 hours; dermal; mortality
# Pimephales promelas = details: chronic/long-term; duration: 35 days; growth
# Canidae = details: oral, Dog Other, hematological
# Bibionidae = details: chronic/long-term; duration: 28 days; other
# Daphnia magna = details: chronic/long-term, duration: 21 days
# Tagia sp. = details: acute; duration: 14 days; mortality
# Macromiidae = details: acute; duration: 96 hours; growth
# Adalia sp. = test: LR50; higher = less toxic; details: chronic/long-term; duration: 21 days; mortality
# [1] = reproduction developmental, reproduction
structure (smiles),measurement,setting,value
CCc1ccc(C(=O)NN(C(=O)c2cc(C)cc(C)c2)C(C)(C)C)cc1 [Tebufenozide],LC50,Lepomis macrochirus,3 µg/mL
same,LD50,Mus musculus,> 5000 mg/kg
same,LD50,Apis mellifera,> 234 µg/piece
same,NOEC,Pimephales promelas,0.71 mg/L
same,NOAEL,"Canidae; chronic, duration: 52 weeks",2 mg/kg-day
same,NOAEL,"Canidae; subchronic, duration: 90 days",2 mg/kg-day
same,LC50,"Colinus virginianus; acute, oral, diet, mortality",> 814 mg/kg
same,LD50,"Colinus virginianus; acute, oral, mortality",> 2150 mg/kg
same,NOAEL,Colinus virginianus; [1],48 mg/kg-day
same,NOEC,Bibionidae,0.0057 mg/L
same,LD50,"Rattus norvegicus; acute, oral, mortality",> 5000 mg/kg
same,NOAEL,Rattus norvegicus; [1],15 mg/kg-day
same,NOEC,Daphnia magna; growth,0.029 mg/L
same,NOEC,Daphnia magna; reproduction,0.0078 mg/L
same,LC50,Tagia sp.,> 1000 mg/kg
same,NOEC,Tagia sp.,≥ 1000 mg/kg
same,NOEC,Macromiidae,0.046 mg/L
same,LR50,Adalia sp.,> 128 g/ha
